Data on 2 molecules can be found in ChEMBL document CHEMBL2074109, “ATP-Dependent efflux of CPT-11 and SN-38 by the multidrug resistance protein (MRP) and its inhibition by PAK-104P” (Mol Pharmacol, 1999).

The series addresses Multidrug resistance-associated protein 1 (Homo sapiens, UniProt P33527). The experiment in a line: TP_TRANSPORTER: intracellular accumulation in KB-3-1 and MRP1-expressing KB-3-1 cells. The class given is functional, cell-based, KB-3-1; KB/MRP. The conditions noted are these: kb/mrp.

Multidrug resistance-associated protein 1, sequence (P33527 whole entry): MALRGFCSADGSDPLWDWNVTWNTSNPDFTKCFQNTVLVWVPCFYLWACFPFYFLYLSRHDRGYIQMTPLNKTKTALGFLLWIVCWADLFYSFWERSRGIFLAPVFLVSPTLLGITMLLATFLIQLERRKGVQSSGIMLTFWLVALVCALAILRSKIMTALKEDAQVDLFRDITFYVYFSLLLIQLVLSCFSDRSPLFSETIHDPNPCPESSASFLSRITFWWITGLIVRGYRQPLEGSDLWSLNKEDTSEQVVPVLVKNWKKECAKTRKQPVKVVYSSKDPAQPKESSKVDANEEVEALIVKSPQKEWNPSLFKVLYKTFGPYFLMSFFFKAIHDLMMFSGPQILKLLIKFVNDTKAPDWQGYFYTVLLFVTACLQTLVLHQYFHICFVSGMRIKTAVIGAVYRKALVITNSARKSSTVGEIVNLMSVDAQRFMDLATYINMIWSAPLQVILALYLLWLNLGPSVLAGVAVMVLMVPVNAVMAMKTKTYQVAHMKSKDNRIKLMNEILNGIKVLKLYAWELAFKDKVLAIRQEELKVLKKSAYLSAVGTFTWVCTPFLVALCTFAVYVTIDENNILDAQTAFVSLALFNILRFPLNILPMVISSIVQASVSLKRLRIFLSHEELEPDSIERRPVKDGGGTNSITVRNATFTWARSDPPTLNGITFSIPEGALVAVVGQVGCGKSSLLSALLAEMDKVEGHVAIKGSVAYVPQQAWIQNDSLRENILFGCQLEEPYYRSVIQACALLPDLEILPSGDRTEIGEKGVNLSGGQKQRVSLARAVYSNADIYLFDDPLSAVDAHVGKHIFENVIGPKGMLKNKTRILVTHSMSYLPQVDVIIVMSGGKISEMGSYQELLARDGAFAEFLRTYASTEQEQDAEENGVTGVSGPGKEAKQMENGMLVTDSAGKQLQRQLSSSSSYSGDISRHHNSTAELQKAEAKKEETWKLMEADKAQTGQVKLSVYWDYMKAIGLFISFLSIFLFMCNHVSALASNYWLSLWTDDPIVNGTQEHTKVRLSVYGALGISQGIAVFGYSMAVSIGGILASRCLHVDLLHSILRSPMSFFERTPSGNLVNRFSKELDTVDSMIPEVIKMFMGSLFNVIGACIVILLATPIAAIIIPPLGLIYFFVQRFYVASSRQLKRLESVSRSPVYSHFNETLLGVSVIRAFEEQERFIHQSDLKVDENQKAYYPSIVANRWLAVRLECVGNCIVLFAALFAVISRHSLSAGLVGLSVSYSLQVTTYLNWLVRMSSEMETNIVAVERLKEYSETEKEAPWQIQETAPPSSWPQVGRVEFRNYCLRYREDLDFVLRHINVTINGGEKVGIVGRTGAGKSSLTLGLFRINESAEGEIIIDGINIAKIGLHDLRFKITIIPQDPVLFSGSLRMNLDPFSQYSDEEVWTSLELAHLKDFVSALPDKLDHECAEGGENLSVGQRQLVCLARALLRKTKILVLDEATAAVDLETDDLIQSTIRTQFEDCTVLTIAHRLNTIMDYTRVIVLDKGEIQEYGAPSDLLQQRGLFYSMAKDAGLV

For the molecule `CCc1c2c(nc3ccc(O)cc13)-c1cc3c(c(=O)n1C2)COC(=O)[C@]3(O)CC` [7-ETHYL-10-HYDROXYCAMPTOTHECIN], the Activity entry is “substrate [+]”.

In the case of `CCc1c2c(nc3ccc(OC(=O)N4CCC(N5CCCCC5)CC4)cc13)-c1cc3c(c(=O)n1C2)COC(=O)[C@]3(O)CC` [IRINOTECAN], the Activity entry was “substrate [+]”.
